We go through one compound from patent publication US4001280A, “Chromone derivatives” (Fujisawa Pharmaceutical Co., Ltd., priority 1972, dated 1977).

This assay relates to Hyperimmune antiserum. The assay is described as follows: Anti-allergic test in sensitized rats: percent inhibition of skin dye leakage (blue spot) for hyperimmune antiserum. Type of assay: in vivo, Sprague-Dawley JCL strain rats. The note with it: p.o. The method, then: Five male Sprague-Dawley JCL strain rates weighing 290-310g. were used for each dose. The animals were sensitized by intracutaneous injection of 0.1ml. of 5 times diluted reagin-like rat antiserum at 48 hours before egg albumin at their depilated backs and were injected 0.1ml. of 4 times diluted hyperimmune rat antiserum at 4 hours before. One ml. of mixture of egg albumin 5 mg. and Evans blue 5 mg. was injected intravenously. Immediately before 0.1ml. of 0.2% histamine solution was injected intracutaneously.
One hour after the injection of the antigen and dye, animals were sacrificed and the skin of the back was removed. The dye of blue spot was then extracted from the skin. The blue spot areas of the skin were punched out and were cut with clipper into small pieces. The small pieces per one blue spot were blended with 10 ml. of a 4:1 mixture of acetone and 2% solution of RBS-25 (Marumoto industrial Co., Ltd.) and rested for 16 hours. Five and 16 hours after, it was shaked for 30 minutes respectively. After centrifugation at 2000 rpm for 15 minutes, the optical density of the supernatant was determined at 620 mμ.
[…] The mean amount of dye of the test animals was compared with that of the control animals. The percent inhibition for each dose was calculated.

Take `CN1CCN(C(=O)c2cc(=O)c3c(OCCOc4ccccc4)cccc3o2)CC1`: the “inhibition % for Hyperimmune antiserum” value (pretreatment 30 min., dose 125 mg./kg.) amounted to 48.2%; the “inhibition % for Hyperimmune antiserum” value (pretreatment 30 min., dose 250 mg./kg.) was determined as 66.7%; the “inhibition % for Hyperimmune antiserum” value (pretreatment 60 min., dose 250 mg./kg.) is 45.8%; the “inhibition % for Hyperimmune antiserum” value (pretreatment 60 min., dose 500 mg./kg.) amounted to 46.5%; the “inhibition % for Hyperimmune antiserum” value (pretreatment 120 min., dose 125 mg./kg.) was 37.6%; the “inhibition % for Hyperimmune antiserum” value (pretreatment 120 min., dose 250 mg./kg.) is on record as 40.6%. Moreover, the “inhibition % for Hyperimmune antiserum” value (pretreatment 120 min., dose 500 mg./kg.) is listed as 67.7%.
